Source: patent publication US20160220569A1, “CDK4/6 Inhibitor Dosage Formulations For The Protection Of Hematopoietic Stem And Progenitor Cells During Chemotherapy” (G1 Therapeutics, Inc., priority 2015, published 2016)
Read-outs that look alike come from different tables or passages of the source.

Assay: 14-day oral gavage toxicokinetic study in rats
Type: in vivo
Settings: male, rat, plasma, po; for concentration at 0.5 h / concentration at 1 h / concentration at 4 h / concentration at 8 h / concentration at 12 h / concentration at 24 h / concentration at […] / concentration at 2 h: rats; for half-life: read-out: t½ (converted)
Experimental: Plasma was obtained from blood samples collected from rats in a composite sampling scheme, with 3 samples collected per sex, per dose, at each target collection time, as illustrated in Table 21 to Table 25. Samples were collected from the vehicle control group on Day 1 and Day 14 at 3 hour after administration. […] Blood samples were collected in tubes containing K3EDTA as an anticoagulant and placed on ice until processed to plasma via centrifugation. Samples were stored frozen at −80° C. until shipment to the bioanalytical laboratory for analysis.
The following parameters were determined:
Cmax: Maximum observed plasma concentration (ng/mL).
A value of 0 ng/mL was assigned to all values below the lower limit of quantitation (BLQ, <10.0 ng/mL).
AUC(0-inf): Area under the plasma concentration vs. time curve extrapolated from 0 to infinity (ng*h/mL), calculated as AUC(0-t)+AUC(t-inf) where AUC(t-inf) is calculated as last measurable concentration (CLast) divided by ke, where ke is the elimination rate constant determined by linear regression of the last three analytically measured points on the log plasma concentration vs. time curve. The selection criteria of the data points for inclusion in the calculation of ke required that at least three data points representing the terminal phase (after Tmax) were regressed and that R2≧0.850 when rounded.
CL: Clearance (L/h/kg), calculated as the dose divided by AUC(0-t).
Vd: Volume of distribution (L/kg), calculated as dose divided by the product of ke and AUC(0-inf).
Vdss: Steady state volume of distribution (L/kg), calculated as clearance […] mean residence time, where mean residence time is calculated as the area under the first moment curve divided by AUC(0-t).
t½: Elimination half-life (h), calculated as ln(2)/ke, where ke is the elimination rate constant determined by linear regression. Half-life was defined as not determined if regression criteria (specified in AUC(0-inf) above) were not met.
Cmax/Dose: Normalized Cmax, calculated as Cmax divided by total dose.
AUC/Dose: Normalized AUC, calculated as AUC(0-t) divided by total dose.
ii. Statistical Analysis Mean and standard deviation (SD) were calculated in Watson. Values of BLQ were assigned a value of 0 ng/mL for mean calculations. Concentration values and derived TK parameters were reported to three significant figures.

[1] = 5 mg/kg, oral 5 mg/kg, Study Day 1, Male
[2] = 5 mg/kg, oral 5 mg/kg, Study Day 14, Male

**Q.** Which concentration at 0.5 h (5 mg/kg, Individual Compound 1 Plasma Concentration, daily oral 5 mg/kg, Day 1, Male, 0.5 h) does the source give for `CN1CCN(c2ccc(Nc3ncc4cc5n(c4n3)C3(CCCCC3)CNC5=O)nc2)CC1` [Compound 1, 2′-((5-(4-methylpiperazin-1-yl)pyridin-2-yl)amino)-7′,8′-dihydro-6′H-spiro[cyclohexane-1,9′-pyrazino[1′,2′:1,5]pyrrolo[2,3-d]pyrimidin]-6′-one] here?
**A.** The concentration at 0.5 h was 225 ng/mL.

**Q.** What about the concentration at 1 h (5 mg/kg, Individual Compound 1 Plasma Concentration, daily oral 5 mg/kg, Day 1, Male, 1 h) of the same compound?
**A.** Its concentration at 1 h is 244 ng/mL.

**Q.** And the concentration at 4 h (5 mg/kg, Individual Compound 1 Plasma Concentration, daily oral 5 mg/kg, Day 1, Male, 4 h)?
**A.** Its concentration at 4 h is 562 ng/mL.

**Q.** And the concentration at 8 h (5 mg/kg, Individual Compound 1 Plasma Concentration, daily oral 5 mg/kg, Day 1, Male, 8 h)?
**A.** The concentration at 8 h was 235 ng/mL.

**Q.** What about the concentration at 12 h (5 mg/kg, Individual Compound 1 Plasma Concentration, daily oral 5 mg/kg, Day 1, Male, 12 h) of the same compound?
**A.** Its concentration at 12 h is 206 ng/mL.

**Q.** What about the concentration at 24 h (5 mg/kg, Individual Compound 1 Plasma Concentration, daily oral 5 mg/kg, Day 1, Male, 24 h) of the same compound?
**A.** The concentration at 24 h was 26.5 ng/mL.

**Q.** What about the concentration at 0.5 h (5 mg/kg, Individual Compound 1 Plasma Concentration, daily oral 5 mg/kg, Day 14, Male, 0.5 h) of the same compound?
**A.** The concentration at 0.5 h was 205 ng/mL.

**Q.** And the concentration at 1 h (5 mg/kg, Individual Compound 1 Plasma Concentration, daily oral 5 mg/kg, Day 14, Male, 1 h)?
**A.** Its concentration at 1 h is 254 ng/mL.

**Q.** What about the concentration at 4 h (5 mg/kg, Individual Compound 1 Plasma Concentration, daily oral 5 mg/kg, Day 14, Male, 4 h) of the same compound?
**A.** The concentration at 4 h was 512 ng/mL.

**Q.** And the concentration at 12 h (5 mg/kg, Individual Compound 1 Plasma Concentration, daily oral 5 mg/kg, Day 14, Male, 12 h)?
**A.** Its concentration at 12 h is 169 ng/mL.

**Q.** What about the concentration at 24 h (5 mg/kg, Individual Compound 1 Plasma Concentration, daily oral 5 mg/kg, Day 14, Male, 24 h) of the same compound?
**A.** Its concentration at 24 h is 11.1 ng/mL.

**Q.** What about the concentration at […] (5 mg/kg, Individual Compound 1 Plasma Concentration, daily oral 5 mg/kg, Day 14, Male, […]) of the same compound?
**A.** The concentration at […] was 26 ng/mL.

**Q.** And the concentration at 0.5 h (5 mg/kg, Mean Compound 1 Plasma Concentration, oral 5 mg/kg, Day 1, 0.5 h, Male)?
**A.** The concentration at 0.5 h was 237 ng/mL.

**Q.** What about the concentration at 1 h (5 mg/kg, Mean Compound 1 Plasma Concentration, oral 5 mg/kg, Day 1, 1 h, Male) of the same compound?
**A.** Its concentration at 1 h is 194 ng/mL.

**Q.** And the concentration at 2 h (5 mg/kg, Mean Compound 1 Plasma Concentration, oral 5 mg/kg, Day 1, 2 h, Male)?
**A.** The concentration at 2 h was 254 ng/mL.

**Q.** And the concentration at 4 h (5 mg/kg, Mean Compound 1 Plasma Concentration, oral 5 mg/kg, Day 1, 4 h, Male)?
**A.** The concentration at 4 h was 408 ng/mL.

**Q.** And the concentration at 8 h (5 mg/kg, Mean Compound 1 Plasma Concentration, oral 5 mg/kg, Day 1, 8 h, Male)?
**A.** The concentration at 8 h was 276 ng/mL.

**Q.** And the concentration at 12 h (5 mg/kg, Mean Compound 1 Plasma Concentration, oral 5 mg/kg, Day 1, 12 h, Male)?
**A.** Its concentration at 12 h is 195 ng/mL.

**Q.** And the concentration at 24 h (5 mg/kg, Mean Compound 1 Plasma Concentration, oral 5 mg/kg, Day 1, 24 h, Male)?
**A.** The concentration at 24 h was 25.6 ng/mL.

**Q.** And the concentration at […] (5 mg/kg, Mean Compound 1 Plasma Concentration, oral 5 mg/kg, Day 1, […], Male)?
**A.** The concentration at […] was 16 ng/mL.

**Q.** And the concentration at 0.5 h (5 mg/kg, Mean Compound 1 Plasma Concentration, oral 5 mg/kg, Day 14, 0.5 h, Male)?
**A.** The concentration at 0.5 h was 298 ng/mL.

**Q.** What about the concentration at 1 h (5 mg/kg, Mean Compound 1 Plasma Concentration, oral 5 mg/kg, Day 14, 1 h, Male) of the same compound?
**A.** Its concentration at 1 h is 258 ng/mL.

**Q.** What about the concentration at 2 h (5 mg/kg, Mean Compound 1 Plasma Concentration, oral 5 mg/kg, Day 14, 2 h, Male) of the same compound?
**A.** The concentration at 2 h was 436 ng/mL.

**Q.** What about the concentration at 4 h (5 mg/kg, Mean Compound 1 Plasma Concentration, oral 5 mg/kg, Day 14, 4 h, Male) of the same compound?
**A.** The concentration at 4 h was 421 ng/mL.

**Q.** And the concentration at 8 h (5 mg/kg, Mean Compound 1 Plasma Concentration, oral 5 mg/kg, Day 14, 8 h, Male)?
**A.** The concentration at 8 h was 273 ng/mL.

**Q.** And the concentration at 12 h (5 mg/kg, Mean Compound 1 Plasma Concentration, oral 5 mg/kg, Day 14, 12 h, Male)?
**A.** Its concentration at 12 h is 198 ng/mL.

**Q.** And the concentration at 24 h (5 mg/kg, Mean Compound 1 Plasma Concentration, oral 5 mg/kg, Day 14, 24 h, Male)?
**A.** The concentration at 24 h was 16.2 ng/mL.

**Q.** And the concentration at […] (5 mg/kg, Mean Compound 1 Plasma Concentration, oral 5 mg/kg, Day 14, […], Male)?
**A.** The concentration at […] was 27.2 ng/mL.

**Q.** What about the AUC(0-inf) [1] of the same compound?
**A.** Its AUC(0-inf) is 4850 ng·h/mL.

**Q.** What about the AUC(0-t) [1] of the same compound?
**A.** Its AUC(0-t) is 4680 ng·h/mL.

**Q.** What about the Cmax [1] of the same compound?
**A.** The Cmax was 408 ng/mL.

**Q.** And the Tmax [1]?
**A.** Its Tmax is 4 h.

**Q.** What about the half-life [1] of the same compound?
**A.** The half-life was 4.52 h.

**Q.** What about the AUC(0-inf) [2] of the same compound?
**A.** Its AUC(0-inf) is 5120 ng·h/mL.

**Q.** And the AUC(0-t) [2]?
**A.** The AUC(0-t) was 5030 ng·h/mL.

**Q.** What about the Cmax [2] of the same compound?
**A.** The Cmax was 436 ng/mL.

**Q.** What about the Tmax [2] of the same compound?
**A.** The Tmax was 2 h.

**Q.** What about the half-life [2] of the same compound?
**A.** Its half-life is 3.77 h.

**Q.** What about the concentration at 1 h (15 mg/kg, Individual Compound 1 Plasma Concentration, daily oral 15 mg/kg, Day 1, Male, 1 h) of the same compound?
**A.** The concentration at 1 h was 614 ng/mL.

**Q.** And the concentration at 2 h (15 mg/kg, Individual Compound 1 Plasma Concentration, daily oral 15 mg/kg, Day 1, Male, 2 h)?
**A.** Its concentration at 2 h is 759 ng/mL.

**Q.** And the concentration at 4 h (15 mg/kg, Individual Compound 1 Plasma Concentration, daily oral 15 mg/kg, Day 1, Male, 4 h)?
**A.** The concentration at 4 h was 1160 ng/mL.

**Q.** And the concentration at 8 h (15 mg/kg, Individual Compound 1 Plasma Concentration, daily oral 15 mg/kg, Day 1, Male, 8 h)?
**A.** The concentration at 8 h was 696 ng/mL.

**Q.** And the concentration at 12 h (15 mg/kg, Individual Compound 1 Plasma Concentration, daily oral 15 mg/kg, Day 1, Male, 12 h)?
**A.** The concentration at 12 h was 451 ng/mL.

**Q.** And the concentration at […] (15 mg/kg, Individual Compound 1 Plasma Concentration, daily oral 15 mg/kg, Day 1, Male, […])?
**A.** The concentration at […] was 49.7 ng/mL.

**Q.** And the concentration at 0.5 h (15 mg/kg, Individual Compound 1 Plasma Concentration, daily oral 15 mg/kg, Day 14, Male, 0.5 h)?
**A.** The concentration at 0.5 h was 741 ng/mL.

**Q.** What about the concentration at 1 h (15 mg/kg, Individual Compound 1 Plasma Concentration, daily oral 15 mg/kg, Day 14, Male, 1 h) of the same compound?
**A.** The concentration at 1 h was 1020 ng/mL.

**Q.** What about the concentration at 2 h (15 mg/kg, Individual Compound 1 Plasma Concentration, daily oral 15 mg/kg, Day 14, Male, 2 h) of the same compound?
**A.** Its concentration at 2 h is 1350 ng/mL.

**Q.** And the concentration at 4 h (15 mg/kg, Individual Compound 1 Plasma Concentration, daily oral 15 mg/kg, Day 14, Male, 4 h)?
**A.** The concentration at 4 h was 1160 ng/mL.

**Q.** And the concentration at 8 h (15 mg/kg, Individual Compound 1 Plasma Concentration, daily oral 15 mg/kg, Day 14, Male, 8 h)?
**A.** Its concentration at 8 h is 1190 ng/mL.

**Q.** What about the concentration at 12 h (15 mg/kg, Individual Compound 1 Plasma Concentration, daily oral 15 mg/kg, Day 14, Male, 12 h) of the same compound?
**A.** Its concentration at 12 h is 583 ng/mL.

**Q.** What about the concentration at 24 h (15 mg/kg, Individual Compound 1 Plasma Concentration, daily oral 15 mg/kg, Day 14, Male, 24 h) of the same compound?
**A.** The concentration at 24 h was 61.4 ng/mL.

**Q.** And the concentration at […] (15 mg/kg, Individual Compound 1 Plasma Concentration, daily oral 15 mg/kg, Day 14, Male, […])?
**A.** Its concentration at […] is 89.9 ng/mL.

**Q.** And the concentration at 0.5 h (15 mg/kg, Mean Compound 1 Plasma Concentration, oral 15 mg/kg, Day 1, 0.5 h, Male)?
**A.** Its concentration at 0.5 h is 620 ng/mL.

**Q.** And the concentration at 1 h (15 mg/kg, Mean Compound 1 Plasma Concentration, oral 15 mg/kg, Day 1, 1 h, Male)?
**A.** The concentration at 1 h was 810 ng/mL.

**Q.** And the concentration at 2 h (15 mg/kg, Mean Compound 1 Plasma Concentration, oral 15 mg/kg, Day 1, 2 h, Male)?
**A.** Its concentration at 2 h is 1060 ng/mL.
